According to patent US10106571B2, “HCV polymerase inhibitors” (priority 2013, dated 2018):
Where two headings read alike, the source gives them in different places.

Tests used:
Format in all cases: cell-based
HCV GT1b (transient) = HCV GT1b (transient) replicon; conditions: Hepatitis C virus, read-out: EC50 HCV GT1b (transient)
Description: (§1) The compound of Example 2 was further evaluated to assess the antiviral activity against genotypes 1-6 of HCV, both wild type and a number of clinically relevant mutant strains. The result of the evaluation together with the average EC50 of the genotypes and the corresponding values for sofosbuvir are summarised in Tables 2 and 3.

HCV GT4a = HCV GT4a chimeric replicon; conditions: Hepatitis C virus, read-out: EC50 HCV GT4a*
Description: as §1

[1] = tested on: genotypes 1-6 of HCV, wild type; assay: Average over wild type HCV genotype assays (Table 2); conditions: for EC50: Hepatitis C virus, arithmetic mean +/- SEM; for potency increase vs sofosbuvir: from AVG EC50
Description: as §1

HCV GT1b L159F/L320F = HCV GT1b L159F/L320F mutant replicon; conditions: for EC50: Hepatitis C virus, GT1B, read-out: EC50 HCV GT1b L159F/L320F; for FC vs WT, HCV GT1b L159F/L320F: fold change of EC50 vs wild type
Description: as §1

[2] = tested on: HCV type 1b replicon (Huh-7 luc/neo, Huh-Luc); assay: Replicon assay, Huh-Luc cells with HCV type 1b replicon (stable), luciferase readout
Description: The compounds of formula I may be examined for activity in the inhibition of HCV RNA replication in a cellular assay aimed at identifying compounds that inhibit a HCV functional cellular replicating cell line, also known as HCV replicons. A suitable cellular assay is based on a bicistronic expression construct, as described by Lohmann et al. (1999), Science vol. 285 pp. 110-113 with modifications described by Krieger et al. (2001), Journal of Virology 75: 4614-4624, in a multi-target screening strategy.
The assay utilizes the stably transfected cell line Huh-7 luc/neo (hereafter referred to as Huh-Luc). This cell line harbors an RNA encoding a bicistronic expression construct comprising the wild type NS3-NS5B regions of HCV type 1b translated from an Internal Ribosome Entry Site (IRES) from encephalomyocarditis virus (EMCV), preceded by a reporter portion (FfL-luciferase), and a selectable marker portion (neo^R, neomycine phosphotransferase). The construct is bordered by 5′ and 3′ NTRs (non-translated regions) from HCV type 1b. Continued culture of the replicon cells in the presence of G418 (neo^R) is dependent on the replication of the HCV RNA. The stably transfected replicon cells that express HCV RNA, which replicates autonomously and to high levels, encoding inter alia luciferase, are used for screening the antiviral compounds.
The replicon cells are plated in 384 well plates in the presence of the test and control compounds which are added in various concentrations. Following an incubation of three days, HCV replication is measured by assaying luciferase activity (using standard luciferase assay substrates and reagents and a Perkin Elmer ViewLux™ ultraHTS microplate imager). Replicon cells in the control cultures have high luciferase expression in the absence of any inhibitor. The inhibitory activity of a compound on luciferase activity is monitored on the Huh-Luc cells, enabling a dose-response curve for each test compound. EC50 values are then calculated, which value represents the amount of the compound required to decrease the level of detected luciferase activity by 50%, or more specifically, the ability of the genetically linked HCV replicon RNA to replicate.

HCV GT6a = HCV GT6a chimeric replicon; conditions: Hepatitis C virus, read-out: EC50 HCV GT6a*
Description: as §1

HCV GT2a virus = assay: HCV GT2a virus; conditions: Hepatitis C virus, wild type, geometric mean
Description: as §1

HCV mutant strains = assay: Average over HCV mutant assays (Table 3); conditions: for EC50: Hepatitis C virus, read-out: AVG EC50; for potency increase vs sofosbuvir: mutant assays, from AVG EC50
Description: as §1

HCV GT1a S282T = HCV GT1a S282T chimeric mutant replicon; conditions: for EC50: Hepatitis C virus, GT1A, read-out: EC50 HCV GT1a* S282T; for FC vs WT, HCV GT1a* S282T: fold change of EC50 vs wild type
Description: as §1

HCV GT2a replicon = assay: HCV GT2a replicon; conditions: Hepatitis C virus, read-out: EC50 HCV GT2a replicon
Description: as §1

HCV GT5a = HCV GT5a chimeric replicon; conditions: Hepatitis C virus, read-out: EC50 HCV GT5a*
Description: as §1

HCV GT1a = HCV GT1a chimeric replicon; conditions: Hepatitis C virus, read-out: EC50 HCV GT1a*
Description: as §1

HCV GT3a S282T = assay: Genotype 3a transient replicon bearing the S282T mutation; conditions: for EC50: Hepatitis C virus; for FC vs WT, HCV GT3a* S282T: fold change of EC50 vs wild type
Procedure: (§2) The antiviral activity of commercially available sofosbuvir and the compound of Example 2 were compared in a genotype 3a transient replicon assay described in Kylefjord et al., J Virol. Methods 2014 195:156-63.
(§3) Similarly, the L159F/L320F double mutant generated by exposure to the nucleoside mericitabine and conferring cross resistance to sofosbuvir (Tong et al 2013 J. Infect. Dis., 209 (5), 668-75) was prepared in a genotype 3a transient replicon as described above in Kylefjord et al. ibid.
as §1

HCV GT3a = assay: Genotype 3a transient replicon assay (Kylefjord et al.); conditions: Hepatitis C virus
Description: as §2, §1

HCV GT3a L159F/L320F = assay: Genotype 3a transient replicon, L159F/L320F double mutant; conditions: for EC50: Hepatitis C virus; for FC vs WT, HCV GT3a* L159F/L320F: fold change of EC50 vs wild type
Procedure: as §3, §1

HCV GT1b S282T = HCV GT1b S282T mutant replicon; conditions: for EC50: Hepatitis C virus, GT1B, read-out: EC50 HCV GT1b S282T; for FC vs WT, HCV GT1b S282T: fold change of EC50 vs wild type
Description: as §1

[3] = Hepatitis C virus, GT1B, Huh-7, wild type, geometric mean, read-out: EC50 HCV GT1b (stable)
[4] = GT3A, read-out: EC50 HCV GT3a* S282T
[5] = read-out: EC50, genotype 3a S282T
[6] = read-out: EC50 against genotype 3a
[7] = GT3A, read-out: EC50 HCV GT3a* L159F/L320F
[8] = read-out: EC50, genotype 3a L159F/L320F double mutant

SMILES: CC(C)OC(=O)[C@H](C)N[P@](=O)(OC[C@H]1O[C@@H](n2ccc(=O)[nH]c2=O)[C@](C)(F)[C@@H]1O)Oc1ccccc1 [sofosbuvir, reference compound]
- EC50 (HCV GT1b (transient)): 81 nM
- EC50 (HCV GT4a): 218 nM
- EC50 [1]: 117 nM
- potency increase vs sofosbuvir [1]: 1.0
- EC50 (HCV GT1b L159F/L320F): 199 nM
- FC vs WT, HCV GT1b L159F/L320F (HCV GT1b L159F/L320F): 2.5
- EC50 [2, 3]: 98 nM
- EC50 (HCV GT6a): 179 nM
- EC50 (HCV GT2a virus): 54 nM
- EC50 (HCV mutant strains): 532 nM
- potency increase vs sofosbuvir (HCV mutant strains): 1.0
- EC50 (HCV GT1a S282T): 1010 nM
- FC vs WT, HCV GT1a* S282T (HCV GT1a S282T): 7.7
- EC50 (HCV GT2a replicon): 48 nM
- EC50 (HCV GT5a): 114 nM
- EC50 (HCV GT1a): 131 nM
- EC50 (HCV GT3a S282T; [4]): 521 nM
- EC50 (HCV GT3a S282T; [5]): 480 nM
- FC vs WT, HCV GT3a* S282T (HCV GT3a S282T): 4.0
- EC50 (HCV GT3a; GT3A, read-out: EC50 HCV GT3a*): 129 nM
- EC50 (HCV GT3a; [6]): 230 nM
- EC50 (HCV GT3a L159F/L320F; [7]): 190 nM
- EC50 (HCV GT3a L159F/L320F; [8]): 190 nM
- FC vs WT, HCV GT3a* L159F/L320F (HCV GT3a L159F/L320F): 1.5
- EC50 (HCV GT1b S282T): 741 nM
- FC vs WT, HCV GT1b S282T (HCV GT1b S282T): 8.8

SMILES: CC(C)OC(=O)[C@H](C)NP(=O)(OC[C@H]1O[C@@H](n2ccc(=O)[nH]c2=O)[C@@](F)(Cl)[C@@H]1O)Oc1ccccc1 (stereo partly drawn) [Example 2, (2S)-isopropyl 2-(((((2R,3R,4S,5R)-4-chloro-5-(2,4-dioxo-3,4-dihydropyrimidin-1(2H)-yl)-4-fluoro-3-hydroxytetrahydrofuran-2-yl)methoxy)(phenoxy)phosphoryl)amino)propanoate]
- EC50 (HCV GT1b (transient)): 44 nM
- EC50 (HCV GT4a): 59 nM
- EC50 [1]: 43 nM
- potency increase vs sofosbuvir [1]: 2.7
- EC50 (HCV GT1b L159F/L320F): 70 nM
- FC vs WT, HCV GT1b L159F/L320F (HCV GT1b L159F/L320F): 1.6
- EC50 [2, 3]: 45 nM
- EC50 ([2]; Huh-Luc HCV 1b replicon, three days incubation, luciferase activity, read-out: EC50): 55 nM
- EC50 (HCV GT6a): 58 nM
- EC50 (HCV GT2a virus): 17 nM
- EC50 (HCV mutant strains): 171 nM
- potency increase vs sofosbuvir (HCV mutant strains): 3.1
- EC50 (HCV GT1a S282T): 301 nM
- FC vs WT, HCV GT1a* S282T (HCV GT1a S282T): 6.0
- EC50 (HCV GT2a replicon): 23 nM
- EC50 (HCV GT5a): 44 nM
- EC50 (HCV GT1a): 50 nM
- EC50 (HCV GT3a S282T; [4]): 122 nM
- EC50 (HCV GT3a S282T; [5]): 130 nM
- FC vs WT, HCV GT3a* S282T (HCV GT3a S282T): 2.7
- EC50 (HCV GT3a; GT3A, read-out: EC50 HCV GT3a*): 46 nM
- EC50 (HCV GT3a; [6]): 72 nM
- EC50 (HCV GT3a L159F/L320F; [7]): 62 nM
- EC50 (HCV GT3a L159F/L320F; [8]): 62 nM
- FC vs WT, HCV GT3a* L159F/L320F (HCV GT3a L159F/L320F): 1.3
- EC50 (HCV GT1b S282T): 298 nM
- FC vs WT, HCV GT1b S282T (HCV GT1b S282T): 6.8
